pIC50: −log10 of the molar value. Structures can show the parent of a compound that is named as a salt. Where two headings read alike, the source gives them in different places.
Target: T1, Angiotensin II Receptor (Bos taurus, UniProt P25104)
T1 construct: fresh adrenal glands received on crushed ice are cleaned of fatty tissues; from tissue; host or cells: beef adrenal cortex, microsomal membranes (100,000×g pellet)
T1 sequence (P25104 1-359): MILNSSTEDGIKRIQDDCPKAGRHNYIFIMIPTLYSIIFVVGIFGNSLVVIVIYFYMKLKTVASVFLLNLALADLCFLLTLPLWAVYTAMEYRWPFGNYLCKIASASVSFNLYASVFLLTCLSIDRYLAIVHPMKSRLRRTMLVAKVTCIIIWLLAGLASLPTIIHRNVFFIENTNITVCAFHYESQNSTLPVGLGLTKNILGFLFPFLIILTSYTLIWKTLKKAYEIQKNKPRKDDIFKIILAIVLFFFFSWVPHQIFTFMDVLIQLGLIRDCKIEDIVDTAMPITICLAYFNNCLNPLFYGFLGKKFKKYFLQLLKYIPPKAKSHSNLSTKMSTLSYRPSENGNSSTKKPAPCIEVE
Test: Receptor Binding Assay: displacement of [^125 I](Sar^1,Ile^8)AngII
Format: beef (adrenal cortex microsomal membranes)
Source text: Beef adrenals are obtained from a local slaughter house (Maxwell-Cohen). [^125 […]. 2200 Ci/mmole, is purchased from Dupont (NEN®, Boston, Mass.). All unlabeled AngII analogs, Dimethylsulfoxide (DMSO), nucleotides, bovine serum albumin (BSA) are purchased from Sigma Chemical Co., St. Louis, Mo. U.S.A. […] Approximately sixteen (16) to twenty (20) beef adrenal glands are processed as follows: fresh adrenal glands received on crushed ice are cleaned of fatty tissues and the tough membranes encapsulating the glands are removed and discarded. The brownish tissue forming the adrenal cortex is scraped off and finely minced with scissors before homogenization. Care is taken to avoid contamination with medullary tissue during dissection. The scraped cortices are suspended in twenty volumes of an ice-cold buffer medium consisting of 10 mM Tris.HCl (pH 7.4 at 22° C.) and containing 1.0 mM EDTA and 0.2M sucrose. Unless otherwise indicated, all subsequent operations are done at 4° C. […] The homogenate is centrifuged first at low speed (3,000×g) for 10 min. […] This P2 pellet is discarded and the liquid phase is carefully decanted off in clean centrifuge tubes and recentrifuged at high speed (100,000×g) for 60 min. The translucent final pellet is harvested and combined in a small volume (20-50.0 ml) of 50.0 mM Tris.HCl buffer, pH 7.2. A 100 ul aliquot is withdrawn and the protein content of the preparation is determined by the Lowry's method (Lowry, O. H., Rosebrough, […]. and Randall, R. J., Protein measurement with Folin phenol reagent. J. Biol. Chem., 48, 265-275, 1951). The pelleted membrane is reconstituted in 50.0 mM Tris.HCl buffer containing 0.1 mM of phenylmethylsulfonyl fluoride (PMSF) to give approximately a protein concentration of 2.5 mg per ml of tissue suspension. […] In competition studies, experimental compounds are diluted in dimethylsulfoxide (DMSO) and added in 20 ul to wells before the introduction of tissue membranes. […] Assays are performed in triplicate. The wells are left undisturbed for 60 min. at room temperature. Following incubation, all wells are harvested at once with a Brandel® Harvester especially designed for a 96 well plate (Brandel® Biomedical Research & Development Labs. Inc., Gaithersburg, Md., U.S.A.). The filter discs are washed with 10×1.0 ml of cold 0.9% NaCl to remove unbound ligand. […] This method is routinely used. The filters are removed from the filter grid and counted in a Parkard® Cobra Gamma Counter for 1 min. (Packard Instrument Co., Downers Grove, Ill., U.S.A.). The binding data are analyzed by the non-linear interactive "LUNDON-1" program (LUNDON SOFTWARE Inc., Cleveland, Ohio U.S.A.).

[1] = continuation of Table I headed BIOLOGICAL DATA, read-out: Biological Data
[2] = read-out: Angiotensin II Receptor Binding IC50

| SMILES | pIC50 [1] | pIC50 [2] |
| --- | --- | --- |
| CCCCc1nc2ccc([C@@H]3C[C@H]4c5ccccc5CCN4O3)cc2c(=O)n1Cc1ccc(-c2ccccc2-c2nnn[nH]2)cc1 (relative stereo) [Example 63, Cis-2-Butyl-6-(1,5,6,10b-tetrahydro-2H-isoxazolo[3,2-a]isoquinolin-2-yl)-3-[[2'-(1H-tetrazol5-yl)[1,1'-biphenyl]-4-yl]methyl]-4(3H)-quinazolinone] | – | 7.27 |
| CCCCc1nc2ccc([C@@]3(CC)C[C@@H]4CCCN4O3)cc2c(=O)n1Cc1ccc(-c2ccccc2-c2nnn[nH]2)cc1 (relative stereo) [Example 71, Cis-2-butyl-6-(2-ethylhexahydropyrrolo[1,2b]isoxazol-2-yl)-3-[[2'-[1-(1H-tetrazol-5-yl)][1,1'-biphenyl]-4-yl]methyl]-4(3H)-quinazolinone] | – | 7.20 |
| CCCCc1nc2ccc(C3(C)CC4c5ccccc5CCN4O3)cc2c(=O)n1Cc1ccc(-c2ccccc2-c2nnn[nH]2)cc1 (stereo not drawn) [Example 64, Cis and Trans-2-Butyl-6-(1,5,6,10b-tetrahydro-2-methyl-2H-isoxazolo[3,2-a]isoquinolin-2-yl)-3-[[2'-(1H-tetrazol-5-yl][1,1'-biphenyl]-4-yl]methyl]-4(3H)-quinazolinone] | – | 7.03 |

Second part, the molecule after the results:

| pIC50 [1] | pIC50 [2] | SMILES |
| --- | --- | --- |
| 6.84 | – | CCCCc1nc2ccc(C3(C(=O)OC)CC4CCCN4O3)cc2c(=O)n1Cc1ccc(-c2ccccc2-c2nnn[nH]2)cc1 (mixture of isomers) [Example 78, Trans(+/-)-Methyl-2-[2-butyl-3,4-dihydro-4-oxo-3-[[2'-(1H-tetrazol-5-yl)[1,1'-biphenyl]-4-yl]methyl-6-quinazolinyl]hexahydropyrrolo[1,2-b]isoxazole-2-carboxylate] |
| 7.51 | – | CCCCc1nc2ccc([C@@]3(C)C[C@@H]4CCCN4O3)cc2c(=O)n1Cc1ccc(-c2ccccc2-c2nnn[nH]2)cc1 (relative stereo) [Example 73, Cis-2-Butyl-6-(hexahydro-2-methylpyrrolo[1,2-b]isoxazol-2-yl)-3-[[2'-(1H-(tetrazol-5-yl)[1,1'-biphenyl-4-yl]methyl]-4(3H)-quinazolinone sodium salt] |
